Reference: patent publication US20030100508A1, “Carbohydrate epitope mimic compounds and uses thereof” (priority 1999, published 2003)

How the values were obtained:
[1] = L2 glycolipid binding to immobilized CD4 peptide; conditions: L2 glycolipid 3 μg/ml, detected with L2-412
Method: The ability of isolated L2/HNK-1 glycolipid to bind to immobilized CD-4 peptide was tested. CD-4 peptide was immobilized in water at different concentrations and dried onto microtiter plates overnight. The microtiter plates were blocked with 1% BSA in PBS, incubated with 3 ug/ml L2 glycolipid for 1.5 hours at room temperature, and washed with PBS. Bound L2 glycolipid was detected with L2-412 antibody followed by HRP-linked secondary antibody.
It was determined whether L2 glycolipid could bind substrate coated CD-4 peptide. CD4 peptide was coated onto microtiter plates by coating with serial dilutions of CD4 peptide (1 mg/ml 1:1 in EtOH) and allowed to dry overnight. The wells were incubated with L2-glycolipid (3 μg/ml) for 1 hour at RT, L2-412 antibody (1: 1000) then added and further incubated for 3 hours at RT. Goat anti-rat antibody was then added, incubated 2 hours at RT and detected by HRP-linked secondary antibody.
The CD-4 peptide was conjugated to Ovalbumin (by similar methods as for BSA conjugation described in Materials and Methods) to generate CD4-OV, and binding experiments were performed to assess binding of conjugated peptide to laminin and L2 glycolipid. In particular, it was necessary to confirm that CD4 peptide and laminin compete directly in binding to L2/HNK-1 glycolipids. […]

laminin = target: T1, laminin (Mus musculus, UniProt P19137); assay: Competition of L2 glycolipid binding to immobilized laminin by CD4 peptide; conditions: L2 glycolipids 3 μg/ml, varying CD-4 peptide
T1 construct: purchased Gibco/BRL
Method: The CD-4 peptide was conjugated to Ovalbumin (by similar methods as for BSA conjugation described in Materials and Methods) to generate CD4-OV, and binding experiments were performed to assess binding of conjugated peptide to laminin and L2 glycolipid. In particular, it was necessary to confirm that CD4 peptide and laminin compete directly in binding to L2/HNK-1 glycolipids. In this set of experiments, microtiter plates were coated with serial dilutions of either CD4-OV or laminin (each 10 μg/ml 1:1 in EtOH, allowed to dry overnight). The coated plates were then incubated in the following combinations: (a) CD4-OV coated plates with L2 glycolipid (3 μg/ml, 1 hr, RT); (b) laminin coated plates with L2 glycolipid (3 μg/ml. 1 hr, RT); and (c) laminin coated plates with CD-4-OV (1 μg/ml) and L2 glycolipids (3 μg/ml) for 1 hr at RT. Similar to the previous set of experiments L2-412 antibody was added (1:1000, 3 hr, RT), followed by HRP-conjugated-goat anti-rat antibody (2 hrs, RT) and detection by HRP-linked secondary antibody. The results (not shown) confirmed that CD4 peptide and laminin compete directly in binding to L2/HNK-1 glycolipids.
To further assess whether the CD-4 peptide could inhibit L2 glycolipid binding to laminin, a fixed amount of L2 glycolipid was incubated with immobilized laminin, in the presence of varying concentrations of CD-4 peptide. […]

RASSSKSWITFDLKNKEVSVK [CD4 peptide]
L2 glycolipid binding to immobilized CD4 peptide (words) [1]: binds to CD4 peptide in a concentration-dependent manner
L2 glycolipid binding to immobilized CD4 peptide (words) ([1]; listed as CD-4 peptide): binds L2 glycolipid in a concentration dependent manner
competition of L2 glycolipid binding to immobilized laminin (laminin): competes with L2 glycolipid binding to immobilized laminin in a concentration-dependent manner
